pIC50: −log10 of the molar value. ≈ marks a conversion by molar mass, not a printed value.
What was measured:
Leishmania infantum [1] = assay: animal or person; settings: in Mesocricetus auratus, po, 120 h, read-out: INH
Description: Antileishmanial activity against Leishmania infantum amastigotes infected in golden hamster assessed as reduction in parasite load in spleen tissue at 12.5 mg/kg, po administered once daily for 5 days relative to control

Leishmania infantum [2] = assay: Antileishmanial activity against Leishmania infantum amastigotes infected in golden hamster assessed as reduction in parasite load in bone marrow tissue at 50 mg/kg, po administered once daily for 5 days relative to control; type: functional; settings: 120 h, time 5 day
Leishmania infantum [3] = assay: Antileishmanial activity against Leishmania infantum amastigotes infected in golden hamster assessed as reduction in parasite load in liver tissue at 25 mg/kg, po administered once daily for 5 days relative to control; settings: in Mesocricetus auratus, 120 h, read-out: INH
Leishmania infantum [4] = assay: animal or person; settings: in Mesocricetus auratus, po, 120 h, read-out: INH; remark: listed apart in the source
Description: Antileishmanial activity against Leishmania infantum amastigotes infected in golden hamster assessed as reduction in parasite load in bone marrow tissue at 12.5 mg/kg, po administered once daily for 5 days relative to control

Leishmania donovani [5] = assay: Antileishmanial activity against Leishmania donovani amastigotes infected in mouse J774A.1 cells incubated for 72 hrs by luciferase assay; type: functional, organism-based; settings: J774.A1, 72 h
Leishmania infantum [6] = assay: Antileishmanial activity against Leishmania infantum amastigotes infected in golden hamster assessed as reduction in parasite load in spleen tissue at 25 mg/kg, po administered once daily for 5 days relative to control; settings: in Mesocricetus auratus, 120 h, read-out: INH
Leishmania donovani [7] = assay: Antileishmanial activity against Leishmania donovani amastigotes infected in BALB/C mouse assessed as reduction in parasite burden in liver tissue at 6.25 mg/kg, po administered once per day for 5 days relative to control; type: functional; settings: 120 h, time 5 day
Leishmania infantum [8] = assay: animal or person; settings: in Mesocricetus auratus, po, 120 h, read-out: INH; remark: listed apart in the source
Description: Antileishmanial activity against Leishmania infantum amastigotes infected in golden hamster assessed as reduction in parasite load in liver tissue at 12.5 mg/kg, po administered once daily for 5 days relative to control

Leishmania infantum [9] = assay: Antileishmanial activity against Leishmania infantum amastigotes infected in golden hamster assessed as reduction in parasite load in liver tissue at 50 mg/kg, po administered once daily for 5 days relative to control; type: functional; settings: 120 h, time 5 day
Leishmania donovani [10] = assay: Antileishmanial activity against Leishmania donovani amastigotes infected in BALB/C mouse assessed as reduction in parasite burden in liver tissue at 25 mg/kg, po administered once per day for 5 days relative to control; settings: 120 h, read-out: INH
Leishmania infantum [11] = assay: Antileishmanial activity against Leishmania infantum amastigotes infected in golden hamster assessed as reduction in parasite load in spleen tissue at 50 mg/kg, po administered once daily for 5 days relative to control; type: functional; settings: 120 h, time 5 day
Leishmania donovani [12] = assay: Antileishmanial activity against Leishmania donovani amastigotes infected in BALB/C mouse assessed as reduction in parasite burden in liver tissue at 3.13 mg/kg, po administered once per day for 5 days relative to control; type: functional; settings: 120 h, time 5 day
[13] = Half life in hamster at 41 to 51 mg/kg, po measured upto 24 hrs LC-MS/MS analysis; settings: chinese hamster, in vivo
in vivo [14] = settings: mouse, po, 25 mg/kg
MRC5 = assay: Cytotoxicity against human MRC5 cells assessed as cell viability after 72 hrs by fluorimetric analysis; type: ADME, cell-based; settings: MRC5, 72 h
[15] = test system: Mycobacterium tuberculosis; assay: Antitubercular activity against Mycobacterium tuberculosis H37Rv assessed as reduction in microbial growth under anaerobic condition by luminescence analysis; type: functional
[16] = test system: Mycobacterium tuberculosis; assay: Antitubercular activity against Mycobacterium tuberculosis H37Rv assessed as reduction in microbial growth under aerobic condition by luminescence analysis; type: functional
Leishmania donovani [17] = assay: Antileishmanial activity against Leishmania donovani amastigotes infected in BALB/C mouse assessed as reduction in parasite burden in liver tissue at 50 mg/kg, po administered once per day for 5 days relative to control; type: functional; settings: 120 h, time 5 day
[18] = AUClast in hamster at 41 to 51 mg/kg, po measured upto 24 hrs LC-MS/MS analysis; settings: chinese hamster, in vivo
in vivo [19] = settings: mouse, po, 25 mg/kg; remark: listed apart in the source
[20] = AUClast in mouse at 25 mg/kg, po measured upto 24 hrs LC-MS/MS analysis; settings: in vivo
[21] = Kinetic solubility of compound in water at pH7 by HPLC analysis; settings: pH 7
Trypanosoma cruzi = assay: Antitrypanosomal activity against Trypanosoma cruzi Tulahuen CL2 infected in human MRC-5 cells assessed as parasite growth; type: functional, organism-based; settings: Tulahuen CL2, MRC5
[22] = Half life in mouse at 25 mg/kg, po measured upto 24 hrs LC-MS/MS analysis; settings: in vivo
in vivo [23] = settings: chinese hamster, po
Leishmania infantum [24] = assay: Antileishmanial activity against Leishmania infantum MHOM/MA(BE)/67 amastigotes infected in macrophages assessed as reduction in parasite burden by giemsa staining based microscopic analysis; type: functional, organism-based
in vivo [25] = settings: chinese hamster, po; remark: listed apart in the source
[26] = Volume of distribution at steady state in mouse at 1 mg/kg, iv measured upto 24 hrs LC-MS/MS analysis; settings: in vivo
[27] = Kinetic solubility of compound in 0.1 M Hcl at pH1 by HPLC analysis; type: physicochemical; settings: pH 1, read-out: Kinetic_solubility
[28] = Clearance in mouse at 1 mg/kg, iv measured upto 24 hrs LC-MS/MS analysis; settings: in vivo
[29] = Initial plasma concentration in mouse at 1 mg/kg, iv measured upto 24 hrs LC-MS/MS analysis
[30] = mouse, in vivo, po, 25 mg/kg, 24 h
[31] = Half life in mouse at 1 mg/kg, iv measured upto 24 hrs LC-MS/MS analysis; settings: in vivo
hERG (KCNH2) = hERG (KCNH2) (Homo sapiens, UniProt Q12809); assay: Inhibition of human ERG expressed in HEK293 cells at 10 uM relative to control; type: cell-based; settings: HEK293 cells expressing human ERG
[32] = AUClast in mouse at 1 mg/kg, iv measured upto 24 hrs LC-MS/MS analysis; settings: in vivo, 24 h
Leishmania infantum [33] = assay: Antileishmanial activity against Leishmania infantum amastigotes infected in golden hamster assessed as reduction in parasite load in bone marrow tissue at 40 mg/kg, po administered once daily for 5 days relative to control; type: functional; settings: 120 h, time 5 day
Leishmania infantum [34] = assay: Antileishmanial activity against Leishmania infantum amastigotes infected in golden hamster assessed as reduction in parasite load in spleen tissue at 40 mg/kg, po administered once daily for 5 days relative to control; type: functional; settings: 120 h, time 5 day
Leishmania infantum [35] = assay: Antileishmanial activity against Leishmania infantum amastigotes infected in golden hamster assessed as reduction in parasite load in liver tissue at 40 mg/kg, po administered once daily for 5 days relative to control; type: functional; settings: 120 h, time 5 day

Chain of hERG (KCNH2) (Q12809 whole entry): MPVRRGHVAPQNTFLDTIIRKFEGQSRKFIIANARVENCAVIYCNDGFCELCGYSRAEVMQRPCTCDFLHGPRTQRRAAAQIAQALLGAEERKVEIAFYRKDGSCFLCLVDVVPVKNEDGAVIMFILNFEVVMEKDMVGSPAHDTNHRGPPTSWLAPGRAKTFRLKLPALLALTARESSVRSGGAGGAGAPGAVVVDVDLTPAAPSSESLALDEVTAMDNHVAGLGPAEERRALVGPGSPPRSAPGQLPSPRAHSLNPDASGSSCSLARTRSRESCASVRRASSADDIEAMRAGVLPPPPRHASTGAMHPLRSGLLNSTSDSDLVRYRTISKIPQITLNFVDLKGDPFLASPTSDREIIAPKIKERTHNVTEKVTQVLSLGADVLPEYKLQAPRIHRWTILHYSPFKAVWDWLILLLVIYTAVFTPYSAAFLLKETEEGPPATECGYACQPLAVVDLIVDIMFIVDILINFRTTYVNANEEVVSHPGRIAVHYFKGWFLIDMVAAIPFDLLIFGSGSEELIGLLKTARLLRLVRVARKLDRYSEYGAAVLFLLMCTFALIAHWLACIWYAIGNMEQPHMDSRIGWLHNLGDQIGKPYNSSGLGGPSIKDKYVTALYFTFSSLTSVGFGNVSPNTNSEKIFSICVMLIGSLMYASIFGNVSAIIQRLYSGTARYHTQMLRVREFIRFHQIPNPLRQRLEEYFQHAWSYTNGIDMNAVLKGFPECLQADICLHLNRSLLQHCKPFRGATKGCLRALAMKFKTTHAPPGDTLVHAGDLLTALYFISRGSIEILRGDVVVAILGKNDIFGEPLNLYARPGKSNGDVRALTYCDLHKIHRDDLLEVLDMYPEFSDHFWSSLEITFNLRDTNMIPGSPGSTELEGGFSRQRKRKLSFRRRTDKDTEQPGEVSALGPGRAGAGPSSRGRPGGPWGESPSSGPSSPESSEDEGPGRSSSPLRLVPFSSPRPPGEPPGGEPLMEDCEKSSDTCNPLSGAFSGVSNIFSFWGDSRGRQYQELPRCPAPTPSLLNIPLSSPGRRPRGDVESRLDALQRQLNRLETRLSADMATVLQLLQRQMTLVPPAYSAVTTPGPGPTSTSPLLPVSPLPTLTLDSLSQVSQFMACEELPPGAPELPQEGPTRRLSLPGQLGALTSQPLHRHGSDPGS

Compound: C[C@@]1(COc2ccc(OC(F)(F)F)cc2)CCn2cc([N+](=O)[O-])nc2O1
- inhibition in vivo at 12.5 mg/kg (Leishmania infantum [1]): 44.4%
- inhibition in vivo at 50 mg/kg (Leishmania infantum [2]): 99.7%
- inhibition in vivo at 25 mg/kg (Leishmania infantum [3]): 97.2%
- inhibition in vivo at 12.5 mg/kg (Leishmania infantum [4]): 0%
- pIC50 (Leishmania donovani [5]): 6.43
- inhibition in vivo at 25 mg/kg (Leishmania infantum [6]): 92.3%
- inhibition in vivo at 6.25 mg/kg (Leishmania donovani [7]): 49%
- inhibition in vivo at 12.5 mg/kg (Leishmania infantum [8]): 47.3%
- inhibition in vivo at 50 mg/kg (Leishmania infantum [9]): 100%
- inhibition in vivo at 25 mg/kg (Leishmania donovani [10]): 66%
- inhibition in vivo at 50 mg/kg (Leishmania infantum [11]): 99.9%
- inhibition in vivo at 3.13 mg/kg (Leishmania donovani [12]): 18%

Compound: C[C@]1(COc2ccc(C(F)(F)F)cn2)CCn2cc([N+](=O)[O-])nc2O1
- half-life at 24 h [13]: 0.72 h
- inhibition in vivo at 50 mg/kg (Leishmania infantum [2]): 54%
- Cmax at 24 h (in vivo [14]): 9500 ng/mL
- pIC50 (MRC5): < 4.19
- MIC [15]: 3.8 µM
- MIC [16]: 0.16 µM
- inhibition in vivo at 50 mg/kg (Leishmania donovani [17]): 84%
- AUC(0-t) at 24 h [18]: 72 ng·h/mL
- Tmax at 24 h (in vivo [19]): 3.7 h
- AUC(0-t) at 24 h [20]: 39600 ng·h/mL
- inhibition in vivo at 50 mg/kg (Leishmania infantum [9]): 51.8%
- solubility kinetic [21]: 26 µg/mL (≈ 72.6 µM)
- pIC50 (Trypanosoma cruzi): 6.47
- half-life at 24 h [22]: 1.5 h
- inhibition in vivo at 50 mg/kg (Leishmania infantum [11]): 47.1%
- Tmax at 24 h (in vivo [23]): 0.75 h
- pIC50 (Leishmania infantum [24]): 6.54
- Cmax at 24 h (in vivo [25]): 45 ng/mL

Compound: CC1(COc2ccc(C(F)(F)F)cn2)CCn2cc([N+](=O)[O-])nc2O1 (configuration not stated)
- Vd at 24 h [26]: 1.3 L/kg
- solubility kinetic [27]: 12 µg/mL (≈ 33.5 µM)
- clearance at 24 h [28]: 31 mL/min/kg
- Cmax at 24 h (in vivo [14]): 15000 ng/mL
- pIC50 (MRC5): < 4.19
- MIC [15]: 8.9 µM
- MIC [16]: 0.6 µM
- C0 at 24 h [29]: 810 ng/mL
- inhibition in vivo at 50 mg/kg (Leishmania donovani [17]): 96%
- pIC50 (Leishmania donovani [5]): 6.68
- Tmax at 24 h (in vivo [19]): 0.5 h
- F [30]: 100%
- half-life at 24 h [31]: 0.85 h
- AUClast ([20]; 24 h): 57100 ng·h/mL
- inhibition at 10 µM (hERG (KCNH2)): 18%
- solubility kinetic [21]: 19 µg/mL (≈ 53 µM)
- AUClast [32]: 544 ng·h/mL
- pIC50 (Trypanosoma cruzi): 6.54
- pIC50 (Leishmania infantum [24]): 6.57

Compound: C[C@@]1(COc2ccc(C(F)(F)F)cn2)CCn2cc([N+](=O)[O-])nc2O1
- inhibition in vivo at 50 mg/kg (Leishmania infantum [2]): 37.4%
- Cmax at 24 h (in vivo [14]): 33000 ng/mL
- pIC50 (MRC5): < 4.19
- inhibition in vivo at 50 mg/kg (Leishmania donovani [17]): 38%
- AUC(0-t) at 24 h [18]: 924 ng·h/mL
- Tmax at 24 h (in vivo [19]): 2 h
- AUC(0-t) at 24 h [20]: 183000 ng·h/mL
- inhibition in vivo at 50 mg/kg (Leishmania infantum [9]): 46.5%
- solubility kinetic [21]: 21 µg/mL (≈ 58.6 µM)
- pIC50 (Trypanosoma cruzi): 6.01
- half-life at 24 h [22]: 1.5 h
- inhibition in vivo at 50 mg/kg (Leishmania infantum [11]): 52.3%
- Tmax at 24 h (in vivo [23]): 4.3 h
- pIC50 (Leishmania infantum [24]): 6.12
- Cmax at 24 h (in vivo [25]): 310 ng/mL

Compound: CCCCCCCCCCCCCCCCOP(=O)([O-])OCC[N+](C)(C)C [MILTEFOSINE]
- inhibition in vivo at 40 mg/kg (Leishmania infantum [33]): 94.9%
- inhibition in vivo at 40 mg/kg (Leishmania infantum [34]): 99.7%
- inhibition in vivo at 40 mg/kg (Leishmania infantum [35]): 98.5%

— ChEMBL document CHEMBL5036301, “Heteroaryl ether analogues of an antileishmanial 7-substituted 2-nitroimidazooxazine lead afford attenuated hERG risk: In vitro and in vivo appraisal” (Eur J Med Chem, 2021)
